# Test results reported in patent US20260035668A1, “ORGANOID CULTURE COMPOSITION FOR INDUCING RESERVE STEM CELLS AND CULTURE METHOD USING SAME” (KOREA UNIVERSITY RESEARCH AND BUSINESS FOUNDATION, priority 2022, published 2026).
# Entries after “also recorded” stand apart in the source; their conditions may differ.
# Legend:
# Assay type in all cases: cell-based, C57Bl/6 mice
# [1] = test system: small intestine-derived organoids; test: Immunofluorescence of reserve stem cell marker TERT in SAG-treated organoids; conditions: 1 μM SAG after 3 μM CHIR99021 + 1 mM valproic acid; over time after incubation; FIG. 1
# Experimental: To prepare small intestine-derived organoids, small intestine tissue was isolated from 4 to 8 week-old C57Bl/6 mice and perfused with PBS. The tissue was cut into pieces of 2 to 4 mm in size, placed in PBS, and washed clearly about 10 times. Then, the tissue was placed in PBS containing 200 mM EDTA, and incubated at 4° C. for 1 hour with shaking. Thereafter, the cells detached from the tissue were passed through a 70 um cell strainer, and centrifuged at 200 g. Organoids were prepared by mixing Matrigel in a 1:1 volume ratio with a culture medium containing settled small intestinal crypts and then performing three-dimensional culture.
# The medium was prepared by adding a 10 mM HEPES buffer, 1X glutamax, 1 mM N-acetylcysteine, 1 volume of N2, 2 volumes of B-27, 20 volumes of RSPO (R-spodin), 10 volumes of noggin per 100 volumes of total medium, and 50 ng/ml of EGF to advanced DMEM F/12 medium (Gibco™, Cat. No 12634010) as a basic medium for small intestine organoids.
# Subsequently, 10 μM Y-27632 was added to the medium, and the organoids prepared in Example 1-1 were inoculated and cultured for 3 days. […]
# [2] = test system: small intestine-derived organoids; test: Radiation resistance: formation of small intestinal crypts after X-ray irradiation; conditions: FIG. 2
# Experimental: In order to confirm the radiation resistance of reserve stem cell-derived organoids prepared in Example 1, the formation of small intestinal crypts and the expression of a cell proliferation marker Ki-67 were confirmed after radiation expose. Specifically, 3 μM CHIR99021 and 1 mM Valproic acid were added to advanced DMEM F/12 medium supplemented with HEPES, glutamax, N-acetylcysteine, N2, B-27, R-spodin, noggin, and EGF. Thereafter, the organoids prepared in Example 1-1 were inoculated and cultured for 6 days, and then cultured for 3 days each under the conditions shown in the table below. [table] Then, the organoids cultured under each culture condition were irradiated once with 6 Gy of X-ray using a radiation irradiator (rs-320), and the formation of small intestinal crypts was confirmed after 72 hours.
# [3] = test system: small intestine-derived organoids; test: Expression of cell proliferation marker Ki-67 by immunofluorescence; conditions: 1 μM SAG culture medium; 0, 24 and 48 hours after completion of culture; vs control group; FIG. 3
# Experimental: (§1) Specifically, the organoids were fixed with 4% PFA, and 0.1% Triton X-100 in PBS was used to increase a permeability of the organoids. Subsequently, 3% BSA and 0.1% Triton X-100 were placed in a solution diluted in PBS for 1 hour to block a membrane of the organoids, and incubated with primary antibodies (anti-hTERT (ab32020, abcam), anti-Ki67 (ab16667, abcam), anti-Green Fluorescent Protein (GFP-1020, aveslabs), anti-Dclk1 (ab31704, abcam), anti-UEA 1 (RL-1062-2, Vector Laboratories)) at 4° C. for 1 day. After washing with PBS three times for 10 minutes at room temperature, incubation was performed with fluorescent secondary antibodies corresponding to each primary antibody for 2 hours. After washing gain with PBS three times for 10 minutes at room temperature, the organoid nuclei were stained with 4′, 6-diamidino-2-phenylindole, dihydrochloride (DAPI) for 5 minutes at room temperature. In order to confirm the radiation resistance of reserve stem cell-derived organoids prepared in Example 1, the formation of small intestinal crypts and the expression of a cell proliferation marker Ki-67 were confirmed after radiation expose. Specifically, 3 μM CHIR99021 and 1 mM Valproic acid were added to advanced DMEM F/12 medium supplemented with HEPES, glutamax, N-acetylcysteine, N2, B-27, R-spodin, noggin, and EGF. […]
# [4] = test system: small intestinal organoids; test: Differentiation potential: Dclk1 (tuft cells) and UEA-1 (goblet cells) immunofluorescence; conditions: culture medium comprising SAG vs control group not comprising SAG; FIG. 4
# Experimental: Subsequently, 10 μM Y-27632 was added to the medium, and the organoids prepared in Example 1-1 were inoculated and cultured for 3 days. Then, 3 μM CHIR99021 (Sigma-Aldrich, Cat. No SML1046-5 MG) and 1 mM valproic acid (Sigma-Aldrich, Cat. No P4543-10G) were added and incubated for 4 days at 37° C. in a 5% CO2 incubator, followed by treatment with 1 μM SAG (Abcam, Cat. No ab142160) and incubation to culture the reserve stem cell-induced organoids.
# as §1, with “temperature.” for “temperature. In order to confirm the radiation resistance of reserve stem cell-derived organoids prepared in Example 1, the formation of small intestinal crypts and the expression of a cell proliferation marker Ki-67 were confirmed after radiation expose. Specifically, 3 μM CHIR99021 and 1 mM Valproic acid were added to advanced DMEM F/12 medium supplemented with HEPES, glutamax, N-acetylcysteine, N2, B-27, R-spodin, noggin, and EGF.”
smiles,measurement,setting,value
"CNC1CCC(N(Cc2cccc(-c3ccncc3)c2)C(=O)c2sc3ccccc3c2Cl)CC1 (stereo not drawn) [SAG, smoothened receptor agonist (SAG)]",activity of TERT (reserve stem cell marker),[1],significantly increased over time
same,formation of small intestinal crypts,"[2]; 1 μM SAG + 3 μM CHIR99021 + 1 mM valproic acid, 3 days, 6 Gy X-ray once, after 72 hours, vs control groups 1 and 2",significantly better formation of small intestinal crypts compared to the other control groups
same,radiation resistance,"[2]; 1 μM SAG, 6 Gy X-ray, vs control groups",had resistance to radiation; also recorded: significantly higher radiation resistance than the other control groups
same,expression of cell proliferation marker Ki-67,[3],expressed at a significantly higher level than a control group at each time point
same,Dclk1 (tuft cells) marker,[4],significantly increased compared to the control group
same,UEA-1 (goblet cells) marker,[4],significantly increased compared to the control group
